Data taken from article PMC9821324, “Pinostrobin Suppresses the α-Melanocyte-Stimulating Hormone-Induced Melanogenic Signaling Pathway” (International Journal of Molecular Sciences, 2023).

Target: T1, mushroom tyrosinase (Agaricus bisporus, UniProt C7FF04)
T1 construct: gene PPO3
Test: cell-free mushroom tyrosinase assay with L-tyrosine, absorbance at […] nm, single concentration […]
Format: biochemical
Details: read-out: % inhibition at 250 nM

T1 sequence (C7FF04 2-392): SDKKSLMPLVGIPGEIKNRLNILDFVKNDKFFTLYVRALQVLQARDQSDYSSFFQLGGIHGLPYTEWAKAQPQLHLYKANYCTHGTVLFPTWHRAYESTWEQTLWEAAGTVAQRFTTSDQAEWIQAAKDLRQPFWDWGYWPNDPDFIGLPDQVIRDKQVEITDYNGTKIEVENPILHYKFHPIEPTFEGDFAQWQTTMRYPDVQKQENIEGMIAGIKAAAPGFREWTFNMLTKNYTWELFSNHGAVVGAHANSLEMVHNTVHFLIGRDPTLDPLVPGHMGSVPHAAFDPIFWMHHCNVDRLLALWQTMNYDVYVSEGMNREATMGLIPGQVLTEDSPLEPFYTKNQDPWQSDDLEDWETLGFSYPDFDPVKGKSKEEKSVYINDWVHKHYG

SMILES: NC(=S)Nc1ccccc1 [PTU, phenylthiourea]
- inhibition at 0.25 µM: 74.7%
